Our source for the Ki values is ChEMBL document CHEMBL3124744, “4-Functionalized 1,3-diarylpyrazoles bearing benzenesulfonamide moiety as selective potent inhibitors of the tumor associated carbonic anhydrase isoforms IX and XII” (Eur J Med Chem, 2014).

For orientation: Ki means a measure of affinity in units of concentration, obtained from inhibition or displacement. A lower Ki goes with a stronger hold on the target.

The target in one test is Carbonic anhydrase 9 (Homo sapiens, UniProt Q16790).
Description: Inhibition of human carbonic anhydrase 9-mediated CO2 hydration preincubated for 10 mins by stopped-flow assay
As to `NC(=O)c1cn(-c2ccc(S(N)(=O)=O)cc2)nc1-c1ccc(F)cc1`, affinity was put at a Ki of 2.3 nM.

In the case of `NC(=O)c1cn(-c2ccc(S(N)(=O)=O)cc2)nc1-c1cccs1`, the affinity, expressed as Ki, was 2.1 nM.

In turn, `COC(=O)c1cn(-c2ccc(S(N)(=O)=O)cc2)nc1-c1ccc(Cl)cc1` returned an inhibition constant (Ki) of 17.1 nM.

Molecule `COC(=O)c1cn(-c2ccc(S(N)(=O)=O)cc2)nc1-c1ccc([N+](=O)[O-])cc1` came in with an inhibition constant Ki of 5.2 nM.

Molecule `NC(=O)c1cn(-c2ccc(S(N)(=O)=O)cc2)nc1-c1ccc(Cl)cc1` gave a Ki of 5.2 nM.

For `NC(=O)c1cn(-c2ccc(S(N)(=O)=O)cc2)nc1-c1ccc([N+](=O)[O-])cc1`, affinity was put at a Ki of 49 nM.

The target of the next test is Carbonic anhydrase 12 (Homo sapiens, UniProt O43570).
Carbonic anhydrase 12, sequence (O43570 whole entry): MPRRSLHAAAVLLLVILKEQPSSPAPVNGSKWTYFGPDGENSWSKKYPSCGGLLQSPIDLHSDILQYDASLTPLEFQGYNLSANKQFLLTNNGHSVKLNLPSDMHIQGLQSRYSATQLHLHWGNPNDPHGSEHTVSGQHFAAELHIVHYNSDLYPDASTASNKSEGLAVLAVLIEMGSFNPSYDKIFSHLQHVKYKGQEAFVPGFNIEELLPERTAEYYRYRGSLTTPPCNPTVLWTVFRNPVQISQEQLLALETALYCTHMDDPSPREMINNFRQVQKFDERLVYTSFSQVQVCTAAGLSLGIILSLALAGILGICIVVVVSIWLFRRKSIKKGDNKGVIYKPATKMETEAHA
Description: Inhibition of human carbonic anhydrase 12-mediated CO2 hydration preincubated for 10 mins by stopped-flow assay
In turn, `COC(=O)c1cn(-c2ccc(S(N)(=O)=O)cc2)nc1-c1ccc(Br)cc1` had a Ki of 43.7 nM.
